Data from PMC10788925 (Journal of Medicinal Chemistry, 2023).

Assays:
HEV-3 replicon p6-Gluc = experiment: microbe, parasite or virus in culture; type: cell-based, Hepatitis E virus; settings: for EC50 / EC90: Hepatitis E virus
CHIKV LR2006-OPY1 = experiment: microbe, parasite or virus in culture; type: cell-based; settings: Chikungunya virus
SARS-CoV-2 = experiment: microbe, parasite or virus in culture; type: cell-based
RVFV strain MP-12 = experiment: microbe, parasite or virus in culture; type: cell-based; settings: Rift Valley fever virus
Huh-7 cells = settings: human
Vero E6 cells = settings: African green monkey (Chlorocebus sp.)
in vitro [1] = settings: human
in vitro [2] = settings: human; remark: listed apart in the source
in vitro [3] = experiment: in vitro
[4] = Severe acute respiratory syndrome coronavirus 2, Vero C1008, 24 h
[5] = Severe acute respiratory syndrome coronavirus 2, Vero C1008, 48 h

COC(=O)[C@H]1[C@@H](O)[C@@]2(O)c3c(OC)cc(Br)cc3O[C@@]2(c2ccc(OC)cc2)[C@@H]1c1ccccc1 (racemic) [9m, (±)-Methyl (1R,2R,3S,3aR,8bS)-6-bromo-1,8b-dihydroxy-8-methoxy-3a-(4-methoxyphenyl)-3-phenyl-2,3,3a,8b-tetrahydro-1H-cyclopenta[b]benzofuran-2-carboxylate]
antiviral response at higher cell density (HEV-3 replicon p6-Gluc): decreased
EC50 (HEV-3 replicon p6-Gluc; HepG2, 24 h): 3.1 nM
EC90 (HEV-3 replicon p6-Gluc; HepG2, 24 h): 40.7 nM
EC50 (HEV-3 replicon p6-Gluc; HepG2, 48 h): 1.4 nM
EC90 (HEV-3 replicon p6-Gluc; HepG2, 48 h): 30.6 nM
EC50 (CHIKV LR2006-OPY1; Huh-7, 24 h): 2.1 nM
EC90 (CHIKV LR2006-OPY1; Huh-7, 24 h): 12.3 nM
EC50 (CHIKV LR2006-OPY1; Huh-7, 48 h): 2.9 nM
EC90 (CHIKV LR2006-OPY1; Huh-7, 48 h): 9.8 nM
EC50 (SARS-CoV-2; [4]): 33.9 nM
EC90 (SARS-CoV-2; [4]): 40.4 nM
EC50 (SARS-CoV-2; [5]): 47.8 nM
EC90 (SARS-CoV-2; [5]): 80 nM
EC50 (RVFV strain MP-12; Vero C1008, 24 h): 26.6 nM
EC90 (RVFV strain MP-12; Vero C1008, 24 h): 39.4 nM
EC50 (RVFV strain MP-12; Vero C1008, 48 h): 43.3 nM
EC90 (RVFV strain MP-12; Vero C1008, 48 h): 53.2 nM
cell viability at higher cell density (HepG2 cells): improved
CC50 (Huh-7 cells): > 1000 nM
CC50 (Vero E6 cells): > 1000 nM
CC50 at 24 h (in vitro [1]): 421 nM
CC50 at 48 h (in vitro [1]): 13.8 nM
CC50 (in vitro [2]): > 1000 nM
CC50 (in vitro [3]; African green monkey (Chlorocebus sp.)): > 1000 nM
CC50 (in vitro [3]; chlorocebus sabaeus, CC50): > 1000 nM
